Results on 19 compounds are retold here after US20230159445A1, “STAT INHIBITORY COMPOUNDS AND COMPOSITIONS” (JANPIX LIMITED, priority 2020, published 2023).

One series has as its system MV4-11 cells. Description: MV4-11 Cell Cytotoxicity Assay (CellTiter-Blue, 72 h). In kind it is cell-based, human. Conditions: Homo sapiens. The essentials:
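Cells seeded 24 h before treatment, then exposed 72 h at 37° C, 5% CO2 to inhibitors in triplicate, top concentration 50 μM with 1:2 serial dilutions (0.5% DMSO vehicle). Viability read by CellTiter-Blue fluorescence at 560/590 nm after 1 h.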

For series [1], the system named is normal human fibroblast (NHF) cells. Description: NHF Cell Cytotoxicity Assay (CellTiter-Blue, 72 h), off-target effects. The class given is cell-based. Conditions: Homo sapiens, Fibroblast; pooled NHF cells. A digest of the protocol:
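Normal human fibroblasts (1×10^4/well, 10% FBS medium) were treated after 24 h with inhibitor at 0.097656-50 μM for 72 h at 37° C. Viability was read by CellTiter-Blue fluorescence (560/590 nm), normalized to DMSO control, and IC50 obtained from a variable-slope log(inhibitor)-response fit of four replicates.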
(In general: Alamar Blue is a resazurin reagent that responds to reducing activity.)

The test system of the next series is glutathione (GSH). In words: Reactivity Profiling with Glutathione (GSH), half-life by HPLC. Conditions: 5 mM glutathione (GSH) in IMDM with 10% FBS.
Experiment in series [2]: as above
The settings on record: 5 mM glutathione, 25° C., HPLC.

Setting [3] is: MV4-11 cells, 72 h, CellTiter-Blue, read-out: IC50- MV-4-11.

Where two headings read alike, the source gives them in different places.

Broadly, the IC50 is the concentration at which inhibition is half-maximal. The term half-life denotes the time needed for the level to fall by half in the phase considered. High values mean slow decline, low ones rapid decline. For `O=C(O)c1ccc(N(Cc2cc(C3CC3)cc(C3CC3)c2)C(=O)CN(CCc2ccc(F)cc2Cl)S(=O)(=O)c2c(F)c(F)c(F)c(F)c2F)c(OC2CC2)c1` [Compound 1242, 4-(2-(N-(2-chloro-4-fluorophenethyl)-(2,3,4,5,6-pentafluorophenyl)sulfon-amido)-N-(3,5-dicyclopropylbenzyl)acetamido)-3-cyclopropoxybenzoic acid], the IC50 with MV4-11 cells (MV4-11, MV-4-11 cells) fell in the range of 316 to 1000 nM; in series [1], 10 to 20 µM. In the series with glutathione (GSH), this compound gave a half-life at 25 μM of 0.00167 to 2.37 h.

Consider `COCCOc1cc(C(=O)O)ccc1N(Cc1cc(C2CC2)cc(C(C)(C)C)c1)C(=O)CN(Cc1ccc(F)cc1Cl)S(=O)(=O)c1c(F)c(F)c(F)c(F)c1F` [Compound 1246, 4-(N-(3-(tert-butyl)-5-cyclopropylbenzyl)-2-(N-(2-chloro-4-fluorobenzyl)-(2,3,4,5,6-pentafluorophenyl)sulfon-amido)acetamido)-3-(2-methoxyethoxy)benzoic acid], for which the IC50 in the series on MV4-11 cells (MV4-11, MV-4-11 cells) fell in the range of 0.01 to 316 nM; in series [1], 10 to 20 µM. The half-life at 25 μM in the series with glutathione (GSH) lay in the range of 2.37 to 4.12 h.

As for `Cc1cc(C(=O)O)ccc1N(Cc1cc(C2CC2)cc(C(C)(C)C)c1)C(=O)CN(Cc1cnccc1C(F)(F)F)S(=O)(=O)c1c(F)c(F)c(F)c(F)c1F` [Compound 1251, 4-(N-(3-(tert-butyl)-5-cyclopropylbenzyl)-2-(N-((4-(trifluoromethyl)pyridin-3-yl)methyl)-(2,3,4,5,6-pentafluoro-phenyl)sulfonamido)acetamido)-3-methylbenzoic acid], the IC50 with MV4-11 cells (MV4-11, MV-4-11 cells) lay in the range of 0.01 to 316 nM; in series [1], 0.001 to 10 µM. In the series with glutathione (GSH), this compound yielded a half-life at 25 μM of 0.00167 to 2.37 h.

As to `CCOc1cc(C(=O)O)ccc1N(Cc1cc(C2CC2)cc(C2CC2)c1)C(=O)CN(Cc1ccc(F)cc1Cl)S(=O)(=O)c1c(F)c(F)c(F)c(F)c1F` [Compound 1252, 4-(2-(N-(2-chloro-4-fluorobenzyl)-(2,3,4,5,6-pentafluorophenyl)sulfon-amido)-N-(3,5-dicyclopropylbenzyl)acetamido)-3-ethoxybenzoic acid], the IC50 is 0.01 to 316 nM in the series with MV4-11 cells (MV4-11, MV-4-11 cells) and 0.001 to 10 µM in series [1]. In the series with glutathione (GSH), this compound displayed a half-life at 25 μM of 2.37 to 4.12 h.

With `CCCCOc1cc(C(=O)O)ccc1N(Cc1cc(C2CC2)cc(C2CC2)c1)C(=O)CN(Cc1ccc(F)cc1Cl)S(=O)(=O)c1c(F)c(F)c(F)c(F)c1F` [Compound 1254, 3-butoxy-4-(2-(N-(2-chloro-4-fluorobenzyl)-(2,3,4,5,6-pentafluorophenyl)sulfon-amido)-N-(3,5-dicyclopropylbenzyl)acetamido)benzoic acid], the half-maximal inhibitory concentration (IC50) lay within 0.01 to 316 nM in the series with MV4-11 cells (MV4-11, MV-4-11 cells) and 20 to 30 µM in series [1]. The same compound displayed a half-life at 25 μM with glutathione (GSH) of 9.23 to 1670 h.

Consider `C#CCOc1cc(C(=O)O)ccc1N(Cc1cc(C2CC2)cc(C2CC2)c1)C(=O)CN(Cc1ccc(F)cc1Cl)S(=O)(=O)c1c(F)c(F)c(F)c(F)c1F` [Compound 1258, 4-(2-(N-(2-chloro-4-fluorobenzyl)-(2,3,4,5,6-pentafluorophenyl)sulfon-amido)-N-(3,5-dicyclopropylbenzyl)acetamido)-3-(prop-2-yn-1-yloxy)benzoic acid], for which the IC50 in the series on MV4-11 cells (MV4-11, MV-4-11 cells) was 0.01 to 316 nM; in series [1] it was 10 to 20 µM. Besides, the half-life at 25 μM in the series on glutathione (GSH) was in the range of 0.00167 to 2.37 h.

`CCOc1cc(C(=O)O)ccc1N(Cc1cc(C2CC2)cc(C(C)(C)C)c1)C(=O)CN(Cc1ccccc1C#N)S(=O)(=O)c1c(F)c(F)c(F)c(F)c1F` [Compound 1272, 4-(N-(3-(tert-butyl)-5-cyclopropylbenzyl)-2-((N-(2-cyanobenzyl)-2,3,4,5,6-pentafluorophenyl)sulfonamido)acetamido)-3-ethoxybenzoic acid]: the IC50 in the series on MV4-11 cells (MV4-11, MV-4-11 cells) was in the range of 0.01 to 316 nM; in series [1], 10 to 20 µM. In addition, the half-life at 25 μM in the series with glutathione (GSH) was 2.37 to 4.12 h.

In the case of `CCOc1cc(C(=O)O)ccc1N(Cc1cc(C2CC2)cc(C2CC2)c1)C(=O)CN(Cc1ccccc1C#N)S(=O)(=O)c1c(F)c(F)c(F)c(F)c1F` [Compound 1273, 4-(2-((N-(2-cyanobenzyl)-2,3,4,5,6-pentafluorophenyl)sulfonamido)-N-(3,5-dicyclopropylbenzyl)acetamido)-3-ethoxybenzoic acid], the IC50 in the series with MV4-11 cells (MV4-11, MV-4-11 cells) lay in the range of 0.01 to 316 nM; in series [1], 10 to 20 µM. Further, in the series on glutathione (GSH), the half-life at 25 μM lay within 0.00167 to 2.37 h.

Turning to `CCOc1cc(C(=O)O)cc(F)c1N(Cc1cc(C2CC2)cc(C2CC2)c1)C(=O)CN(Cc1ccccc1C#N)S(=O)(=O)c1c(F)c(F)c(F)c(F)c1F` [Compound 1274, 4-(2-((N-(2-cyanobenzyl)-2,3,4,5,6-pentafluorophenyl)sulfonamido)-N-(3,5-dicyclopropylbenzyl)acetamido)-3-ethoxy-5-fluorobenzoic acid], the IC50 lay in the range of 0.01 to 316 nM in the series on MV4-11 cells (MV4-11, MV-4-11 cells) and 10 to 20 µM in series [1]. For the same compound, the half-life at 25 μM in the series with glutathione (GSH) was in the range of 2.37 to 4.12 h.

Turning to `CCOc1cc(C(=O)O)cc(F)c1N(Cc1cc(C2CC2)cc(C2CC2)c1)C(=O)CN(Cc1ccc(F)cc1Cl)S(=O)(=O)c1c(F)c(F)c(F)c(F)c1F` [Compound 1276, 4-(2-((N-(2-chloro-4-fluorobenzyl)-2,3,4,5,6-pentafluorophenyl)sulfonamido)-N-(3,5-dicyclopropylbenzyl)acetamido)-3-ethoxy-5-fluorobenzoic acid], the IC50 with MV4-11 cells (MV4-11, MV-4-11 cells) lay in the range of 0.01 to 316 nM; in series [1], 10 to 20 µM. The half-life at 25 μM in the series with glutathione (GSH) fell in the range of 4.12 to 9.23 h.

`CCOc1cc(C(=O)O)ccc1N(Cc1cc(C2CC2)cc(C(C)(C)C)c1)C(=O)CN(Cc1cnccc1Cl)S(=O)(=O)c1c(F)c(F)c(F)c(F)c1F` [Compound 1277, 4-(N-(3-(tert-butyl)-5-cyclopropylbenzyl)-2-((N-((4-chloropyridin-3-yl)methyl)-2,3,4,5,6-pentafluorophenyl)sulfonamido)acetamido)-3-ethoxybenzoic acid]: the IC50 was 0.01 to 316 nM in the series with MV4-11 cells (MV4-11, MV-4-11 cells) and 0.001 to 10 µM in series [1]. Also, the half-life at 25 μM in the series with glutathione (GSH) lay in the range of 0.00167 to 2.37 h.

In the case of `CCOc1cc(C(=O)O)ccc1N(Cc1cc(C2CC2)cc(C2CC2)c1)C(=O)CN(Cc1ccccc1Cl)S(=O)(=O)c1c(F)c(F)c(F)c(F)c1F` [Compound 1278, 4-(2-((N-(2-chlorobenzyl)-2,3,4,5,6-pentafluorophenyl)sulfonamido)-N-(3,5-dicyclopropylbenzyl)acetamido)-3-ethoxybenzoic acid], the IC50 in the series on MV4-11 cells (MV4-11, MV-4-11 cells) lay in the range of 0.01 to 316 nM; in series [1] it was 10 to 20 µM. In the series with glutathione (GSH), this compound gave a half-life at 25 μM of 2.37 to 4.12 h.

For `N#Cc1ccccc1CN(CC(=O)N(Cc1cc(C2CC2)cc(C2CC2)c1)c1ccc(C(=O)O)cc1OC1CCCC1)S(=O)(=O)c1c(F)c(F)c(F)c(F)c1F` [Compound 1279, 4-(2-((N-(2-cyanobenzyl)-2,3,4,5,6-pentafluorophenyl)sulfonamido)-N-(3,5-dicyclopropylbenzyl)acetamido)-3-(cyclopentyloxy)benzoic acid], the IC50 lay in the range of 0.01 to 316 nM with MV4-11 cells (MV4-11, MV-4-11 cells) and 10 to 20 µM in series [1]. The compound also displayed a half-life at 25 μM in the series with glutathione (GSH) of 4.12 to 9.23 h.

Regarding `CC(C)Oc1cc(C(=O)O)ccc1N(Cc1cc(C2CC2)cc(C2CC2)c1)C(=O)CN(Cc1ccccc1C#N)S(=O)(=O)c1c(F)c(F)c(F)c(F)c1F` [Compound 1280, 4-(2-((N-(2-cyanobenzyl)-2,3,4,5,6-pentafluorophenyl)sulfonamido)-N-(3,5-dicyclopropylbenzyl)acetamido)-3-isopropoxybenzoic acid], the IC50 with MV4-11 cells (MV4-11, MV-4-11 cells) fell in the range of 0.01 to 316 nM; in series [1] it was 10 to 20 µM. The compound also displayed a half-life at 25 μM in the series with glutathione (GSH) of 2.37 to 4.12 h.

Turning to `CCOc1cc(C(=O)O)ccc1N(Cc1cc(C2CC2)cc(N2CCCC2)c1)C(=O)CN(Cc1ccccc1C#N)S(=O)(=O)c1c(F)c(F)c(F)c(F)c1F` [Compound 1281, 4-(2-((N-(2-cyanobenzyl)-2,3,4,5,6-pentafluorophenyl)sulfonamido)-N-(3-cyclopropyl-5-(pyrrolidin-1-yl)benzyl)acetamido)-3-ethoxybenzoic acid], the IC50 is 0.01 to 316 nM with MV4-11 cells (MV4-11, MV-4-11 cells) and 10 to 20 µM in series [1]. In the series with glutathione (GSH), this compound yielded a half-life at 25 μM of 2.37 to 4.12 h.

As to `CC(C)(C)c1cc(CN(C(=O)CN(Cc2ccc(Cl)cc2)S(=O)(=O)c2c(F)c(F)c(F)c(F)c2F)c2ccc(C(=O)O)c(O)c2)cc(C(C)(C)C)c1` [Compound 2001, 4-(2-(N-(4-chlorobenzyl)-(2,3,4,5,6-pentafluorophenyl)sulfon-amido)-N-(3,5-di-tert-butylbenzyl)acetamido)-2-hydroxybenzoic acid], the IC50 in the series with MV4-11 cells (setting [3]) was in the range of 3160 to 100000 nM. In addition, the “Tl/2- GSH” value in series [2] is listed as “B (247≤B<554)”.

In the case of `O=C(O)c1ccc(N(Cc2ccccc2)C(=O)CN(Cc2ccc(Cl)cc2)S(=O)(=O)c2c(F)c(F)c(F)c(F)c2F)cc1O` [Compound 2004, 4-(N-benzyl-2-(N-(4-chlorobenzyl)-(2,3,4,5,6-pentafluorophenyl)sulfon-amido)acetamido)-2-hydroxybenzoic acid], the IC50 with MV4-11 cells (setting [3]) is 3160 to 100000 nM. Moreover, the “Tl/2- GSH” value in series [2] is listed as “D (0.1<D<142)”.

`CC(C)(C)c1cc(CN(C(=O)CN(Cc2ccccc2F)S(=O)(=O)c2c(F)c(F)c(F)c(F)c2F)c2ccc(C(=O)O)c(O)c2)cc(C(C)(C)C)n1` [Compound 2015, 4-(N-((2,6-di-tert-butylpyridin-4-yl)methyl)-2-(N-(2-fluorobenzyl)-(2,3,4,5,6-pentafluoro-phenyl)sulfonamido)acetami-do)-2-hydroxybenzoic acid]: in the series with MV4-11 cells (setting [3]), the IC50 lay in the range of 3160 to 100000 nM. Also, in series [2], the “Tl/2- GSH” value is listed as “C (142≤C<247)”.

For the compound `CN(C(=O)CN(Cc1ccccc1C(F)(F)F)S(=O)(=O)c1c(F)c(F)c(F)c(F)c1F)c1ccc(C(=O)O)cc1OC1CC1` [Compound 2016, 3-cyclopropoxy-4-(N-methyl-2-(N-(2-(trifluoromethyl)benzyl)-(2,3,4,5,6-pentafluoro-phenyl)sulfonamido)acetami-do)benzoic acid], the IC50 in the series on MV4-11 cells (setting [3]) lay within 1000 to 3160 nM. Besides, the “Tl/2- GSH” value in series [2] is “D (0.1<D<142)”.
